Experimental data published in paper PMC8003796, “Identification of Anti-Severe Acute Respiratory Syndrome-Related Coronavirus 2 (SARS-CoV-2) Oxysterol Derivatives In Vitro” (International Journal of Molecular Sciences, 2021).
Several values for one entry are separate records, joined by “and”; a condition that tells them apart may be missing. Equal values may be shown once. Read-outs that look alike come from different tables or passages of the source.

Experiments:
[1] = system: SARS-CoV-2; test: SARS-CoV-2 infection assay, viral RNA in culture supernatant by real-time RT-PCR; format: cell-based, SARS-CoV-2 Wk-521 strain; conditions: for IC90: Severe acute respiratory syndrome coronavirus 2, read-out: IC90 (90% maximal inhibitory concentration); for IC90 / IC50: viral RNA in culture supernatant, VeroE6/TMPRSS2 cells; for IC50: Severe acute respiratory syndrome coronavirus 2, read-out: IC50 (50% maximal inhibitory concentration); for effect on viral RNA (in words) / reduction of the production of viral RNA as compared to control: concentrations up to 30 μM; for reduction of the production of viral RNA as compared to control: natural oxysterols; for effect of pathway inhibitors on viral RNA (in words) / reduction of viral replication: 10 μM; for effect on viral RNA level (in words): semi-synthetic oxysterols, up to 15 μM; for reduction of viral RNA production: 15 μM
[2] = in vitro; conditions: African green monkey
[3] = system: SARS-CoV-2; test: Viral N protein by indirect immunofluorescence; format: cell-based, SARS-CoV-2 Wk-521 strain; conditions: 10 μM RDV, 30 μM cholesterol, 30 μM 7-KC, 10 μM Oxy133, 10 μM Oxy210
[4] = system: SARS-CoV-2; test: Virus-induced cytopathic effect (CPE) viewed under a microscope; format: cell-based, SARS-CoV-2 Wk-521 strain; conditions: 48 h post-inoculation; 10 μM RDV, 30 μM cholesterol, 30 μM 7-KC, 10 μM Oxy133, 10 μM Oxy210
[5] = system: VeroE6/TMPRSS2 cells; test: Cell viability by MTT assay; conditions: up to 15 μM
[6] = system: hepatitis C virus (HCV); test: HCV replication assay, luciferase in LucNeo#2 replicon cells; format: cell-based, HCV NN strain (genotype-1b); conditions: 10 μM Oxy210, 1 μM sofosbuvir, 48 h
Description: N, nucleus; M, mitochondria; *, double-membrane vesicle.
HCV replication activity was measured using LucNeo#2 cells, carrying a subgenomic replicon RNA for an HCV NN strain (genotype-1b) and the luciferase gene driven by the HCV replication. LucNeo#2 cells were treated with the compounds indicated in Figure 3C for 48 h, and the luciferase activity was measured with Luciferase Assay System kit (Promega, Madison, WI, USA).

[7] = system: SARS-CoV-2; test: Time of addition assay (whole life cycle, entry, post-entry); format: cell-based, SARS-CoV-2 Wk-521 strain; conditions: 10 μM Oxy210, 10 μM Oxy133
[8] = Pharmacokinetics in mice, single oral gavage dose; format: in vivo, balb/c mice; conditions: single oral dose 200 mg/kg; for Cmax: 200 mg/kg, read-out: Cmax (peak plasma concentration)
[9] = system: TGFβ signaling; conditions: fibroblastic cells and tumor cells ref 16; cited from earlier work
[10] = system: SARS-CoV-2; test: Electron microscopy of double-membrane vesicle formation in infected cells; conditions: 10 μM, VeroE6/TMPRSS2 cells, MOI 1, 7 h
[11] = system: Hh signaling; conditions: fibroblastic cells and tumor cells ref 16; cited from earlier work
[12] = system: Hh signaling; test: Hedgehog activity, Gli1 mRNA in NIH3T3 cells; format: cell-based; conditions: 10 μM, CAPAN-1 conditioned medium containing Shh
Description: (§1) Scale bar, 100 μm. (B) Viral N protein in the cells was detected by immunofluorescence analysis as described in Figure 1C. Scale bar, 50 μm. (C) Dose-response curves for viral RNA upon treatment with oxysterol derivatives as indicated. The secreted viral RNA in the culture supernatant at 24 h post-inoculation was quantified by real-time RT-PCR and plotted against compound concentration. The chemical structures of oxysterols are also shown above the graphs. (D) Viability of cells treated with the compounds was quantified using an MTT assay. (E,F) Inhibitory effects toward transforming growth factor β (TGFβ) and hedgehog (Hh) signaling. […] Cellular mRNAs were extracted to quantify a TGFβ-downstream gene, connective tissue growth factor (CTGF) (E), a Hh target gene, Gli1 (F), and Oaz1 for normalization of CTGF and Gli1 (E,F).
(§2) TGFβ activity was examined with NIH3T3 cells precultured with DMEM containing 0.1% bovine calf serum (BCS) overnight. NIH3T3 cells were pretreated with the compounds for 2 h and then stimulated with TGFβ1 (20 ng/mL) in the presence or absence of compounds. After 48 h, RNA was extracted from the cells and analyzed for quantifying the mRNA for a TGFβ target gene, connective tissue growth factor (CTGF), and Oaz1 for normalization. […] Cellular RNA was extracted and analyzed for the expression of a Hh target gene, Gli1, and normalized to Oaz1 expression.

[13] = system: TGFβ signaling; test: TGFβ activity, CTGF mRNA in NIH3T3 cells; format: cell-based; conditions: 10 μM, NIH3T3 cells stimulated with 20 ng/mL TGFβ
Description: as §1, §2

CC(C)CCC[C@@H](C)[C@H]1CC[C@H]2[C@@H]3CC=C4[C@@H](O)[C@@H](O)CC[C@]4(C)[C@H]3CC[C@]12C [4-beta-OHC, 4beta-hydroxycholesterol]
IC90 ([1]; 24 h post-inoculation): > 30 µM | IC50 ([1]; 24 h post-inoculation): > 30 µM | effect on viral RNA (in words) ([1]; 24 h post-inoculation): did not show apparent reductions in viral RNA | CC50 [2]: > 30 µM

CC(C)CCC[C@@H](C)[C@H]1CC[C@H]2[C@@H]3C(=O)C=C4C[C@@H](O)CC[C@]4(C)[C@H]3CC[C@]12C [7-KC, 7-ketocholesterol]
effect on virus propagation / spread of infection, N protein (in words) [3]: reduced | IC90 ([1]; 24 h post-inoculation): > 30 µM | IC50 ([1]; 24 h post-inoculation): 14.5 µM | reduction of the production of viral RNA as compared to control ([1]; 24 h post-inoculation): 80%–86% | effect on SARS-CoV-2-induced CPE (in words) [4]: reduced the SARS-CoV-2-induced CPE | CC50 [2]: > 30 µM

CC(C)CC[C@@H](O)[C@@H](C)[C@H]1CC[C@H]2[C@@H]3CC=C4C[C@@H](O)CC[C@]4(C)[C@H]3CC[C@]12C [22(R)-OHC, 22(R)-hydroxycholesterol]
IC90 ([1]; 24 h post-inoculation): > 30 µM | IC50 ([1]; 24 h post-inoculation): 13.2 µM | reduction of the production of viral RNA as compared to control ([1]; 24 h post-inoculation): 80%–86% | CC50 [2]: > 30 µM

CC(C)CC[C@H](O)[C@@H](C)[C@H]1CC[C@H]2[C@@H]3CC=C4C[C@@H](O)CC[C@]4(C)[C@H]3CC[C@]12C [22(S)-OHC, 22(S)-hydroxycholesterol]
IC90 ([1]; 24 h post-inoculation): > 30 µM | IC50 ([1]; 24 h post-inoculation): > 30 µM | effect on viral RNA (in words) ([1]; 24 h post-inoculation): did not show apparent reductions in viral RNA | CC50 [2]: > 30 µM

CC(C)[C@@H](O)CC[C@@H](C)[C@H]1CC[C@H]2[C@@H]3CC=C4C[C@@H](O)CC[C@]4(C)[C@H]3CC[C@]12C [24(S)-OHC, 24(S)-hydroxycholesterol]
IC90 ([1]; 24 h post-inoculation): > 30 µM | IC50 ([1]; 24 h post-inoculation): 1.3 µM | reduction of the production of viral RNA as compared to control ([1]; 24 h post-inoculation): 80%–86% | CC50 [2]: > 30 µM

C[C@@H](CO)CCC[C@@H](C)[C@H]1CC[C@H]2[C@@H]3CC=C4C[C@@H](O)CC[C@]4(C)[C@H]3CC[C@]12C [27-OHC, 27-hydroxycholesterol]
IC90 ([1]; 24 h post-inoculation): > 30 µM | IC50 ([1]; 24 h post-inoculation): 3.5 µM | reduction of the production of viral RNA as compared to control ([1]; 24 h post-inoculation): 80%–86% | CC50 [2]: > 30 µM

CC(C)CCC[C@@H](C)[C@H]1CC[C@H]2[C@@H]3CC=C4C[C@@H](O)CC[C@]4(C)[C@H]3CC[C@]12C [Cholesterol, reference compound]
effect on virus propagation / spread of infection, N protein (in words) [3]: but not cholesterol, reduced | IC90 ([1]; 24 h post-inoculation): > 30 µM | IC50 ([1]; 24 h post-inoculation): > 30 µM | effect on viral RNA (in words) ([1]; 24 h post-inoculation): did not show apparent reductions in viral RNA | effect on SARS-CoV-2-induced CPE (in words) [4]: but not cholesterol, reduced the SARS-CoV-2-induced CPE | CC50 [2]: > 30 µM

CS(=O)(=O)c1ccc(C(=O)Nc2ccc(Cl)c(-c3ccccn3)c2)c(Cl)c1 [GDC0449, reference compound]
effect of pathway inhibitors on viral RNA (in words) ([1]; 24 h post-inoculation): did not decrease the viral RNA levels

CCCCCC[C@@](C)(O)[C@H]1CC[C@H]2[C@@H]3C[C@H](O)[C@H]4C[C@@H](O)CC[C@]4(C)[C@H]3CC[C@@]21C [Oxy133]
IC90 ([1]; 24 h post-inoculation): > 15 µM | IC50 ([1]; 24 h post-inoculation): > 15 µM | effect on viral RNA level (in words) ([1]; 24 h post-inoculation): did not show antiviral activity up to 15 μM | CC50 [2]: > 15 µM

C[C@]12CC[C@H](O)C[C@@H]1CC[C@@H]1[C@@H]2CC[C@@]2(C)[C@H]1CC[C@@H]2[C@](C)(O)CCc1ccc(F)cc1 [Oxy186]
cytotoxicity / cell viability (in words) [5]: No significant cytotoxicity | maximum reduction in viral RNA as compared to control ([1]; 12 μM, 24 h post-inoculation): 83% | IC90 ([1]; 24 h post-inoculation): > 15 µM | IC50 ([1]; 24 h post-inoculation): 7.4 µM | effect on viral RNA level (in words) ([1]; 24 h post-inoculation): reduced viral RNA level in a dose-dependent manner | CC50 [2]: > 15 µM

C[C@]12CC[C@H]3[C@@H](CC=C4C[C@@H](O)CC[C@@]43C)[C@@H]1CC[C@@H]2[C@](C)(O)CCc1cccnc1 [Oxy210]
HCV replication, luciferase activity (in words) [6]: reduced the DMV-dependent RNA replication of HCV | viral RNA, compound present in the whole life cycle (in words) ([7]; 24 h): clearly reduced viral RNA levels | viral RNA, compound present post-entry (in words) ([7]; 15 μM RDV, added 2 h post-inoculation for 21 h): clearly reduced viral RNA levels | Cmax ([8]; balb/c, mouse, in vivo, po, plasma): 8160 ng/mL and 19.4 µM | MRT ([8]; balb/c, mouse, in vivo, plasma): 3.5 h | Tmax ([8]; balb/c, mouse, in vivo, plasma): 1 h | AUC(0-inf) ([8]; balb/c, mouse, in vivo, plasma, read-out: AUC (AUCinf)): 29300 ng·h/mL | tolerability (in words) [8]: well tolerated | Cmax ([8]; plasma): ~19 µM | cytotoxicity / cell viability (in words) [5]: No significant cytotoxicity | effect on virus propagation / spread of infection, N protein (in words) [3]: blocked | inhibition of TGFβ signaling (in words) [9]: inhibited | DMV formation in SARS-CoV-2-infected cells (in words) [10]: remarkably reduced the DMV formation | reduction of viral replication [1]: more than 90% | reduction of viral RNA production ([1]; 24 h post-inoculation): 99.4% and > 99% | IC90 ([1]; 24 h post-inoculation): 8.6 µM | IC50 ([1]; 24 h post-inoculation): 5.5 µM | effect on viral RNA level (in words) ([1]; 24 h post-inoculation): reduced viral RNA level in a dose-dependent manner | effect on SARS-CoV-2-induced CPE (in words) [4]: blocked | inhibition of Hh signaling (in words) [11]: inhibited | CC50 [2]: > 15 µM

CC[C@@](O)(CCc1cccnc1)[C@H]1CC[C@H]2[C@@H]3CC[C@H]4C[C@@H](O)CC[C@]4(C)[C@H]3CC[C@]12C [Oxy232]
cytotoxicity / cell viability (in words) [5]: slightly reduced cell viability when used at concentrations above 10 μM | reduction of viral replication [1]: more than 90% | reduction of viral RNA production ([1]; 24 h post-inoculation): 99.9% and > 99% | IC90 ([1]; 24 h post-inoculation): 7.8 µM | IC50 ([1]; 24 h post-inoculation): 5.4 µM | effect on viral RNA level (in words) ([1]; 24 h post-inoculation): reduced viral RNA level in a dose-dependent manner | inhibition of Hh signaling (Gli1 mRNA, in words) [12]: retains inhibitory activity toward Hh signaling | inhibition of TGFβ signaling (CTGF mRNA, in words) [13]: devoid of significant TGFβ inhibitory properties | CC50 [2]: > 15 µM

NC(=O)c1ccc(-c2nc(-c3ccc4c(c3)OCO4)c(-c3ccccn3)[nH]2)cc1 [SB431542, reference compound]
effect of pathway inhibitors on viral RNA (in words) ([1]; 24 h post-inoculation): did not significantly inhibit the production of viral RNA

CC(C)OC(=O)[C@H](C)N[P@](=O)(OC[C@H]1O[C@@H](n2ccc(=O)[nH]c2=O)[C@](C)(F)[C@@H]1O)Oc1ccccc1 [sofosbuvir, reference compound]
HCV replication, luciferase activity (in words) [6]: positive control
